Laboratory results taken from patent US7767659B2, “Synthesis of naturally occurring ecteinascidins and related compounds” (Pharma Mar, S.A., priority 2002, dated 2010).

How the values were obtained:
[1] = system: A-549; experiment: cells; details: Homo sapiens, A549, 48 h; for GI50: read-out: A549 GI50; for CC50: read-out: A549 LC50; for IC (TGI): read-out: A549 TGI
How it was run: (§1)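 Colorimetric SRB read (490 nm) on triplicate wells after 48 h at 37 °C, 5% CO2. Dose range 10 to 10^−8 μg/ml; 5×10^3 cells/well pre-attached 18 h.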

[2] = system: HT-29; experiment: cells; details: Homo sapiens, HT-29, 48 h; for GI50: read-out: HT29 GI50; for CC50: read-out: HT29 LC50; for IC (TGI): read-out: HT29 TGI
How it was run: as §1

[3] = system: LoVo; experiment: cells; details: Homo sapiens, LoVo, 48 h; for GI50: read-out: LOVO GI50; for CC50: read-out: LOVO LC50; for IC (TGI): read-out: LOVO TGI
How it was run: as §1

[4] = system: DU-145; experiment: Inhibition of cells growth by colorimetric assay (SRB); details: Homo sapiens, DU-145, 48 h; for GI50: read-out: DU145 GI50; for CC50: read-out: DU145 LC50; for IC (TGI): read-out: DU145 TGI
How it was run: as §1

[5] = system: HeLa-APL; experiment: as above; details: Homo sapiens, 48 h; for GI50: read-out: HELA-APL GI50; for CC50: read-out: HELA-APL LC50; for IC (TGI): read-out: HELA-APL TGI
How it was run: as §1

[6] = system: HeLa; experiment: as above; details: Homo sapiens, HeLa, 48 h; for GI50: read-out: HELA GI50; for CC50: read-out: HELA LC50; for IC (TGI): read-out: HELA TGI
How it was run: as §1

[7] = system: IGROV-1; experiment: as above; details: Homo sapiens, IGROV-1, 48 h; for GI50: read-out: IGROV GI50; for CC50: read-out: IGROV LC50; for IC (TGI): read-out: IGROV TGI
How it was run: as §1

[8] = system: IGROV-ET; experiment: as above; details: Homo sapiens, 48 h; for GI50: read-out: IGROV-ET GI50; for CC50: read-out: IGROV-ET LC50; for IC (TGI): read-out: IGROV-ET TGI
How it was run: as §1

[9] = system: K-562; experiment: as above; details: Homo sapiens, K562, 48 h; for GI50: read-out: K562 GI50; for CC50: read-out: K562 LC50; for IC (TGI): read-out: K562 TGI
How it was run: as §1

[10] = system: LNCaP; experiment: as above; details: Homo sapiens, LNCaP, 48 h; for GI50: read-out: LNCAP GI50; for CC50: read-out: LNCAP LC50; for IC (TGI): read-out: LNCAP TGI
How it was run: as §1

[11] = system: LoVo-Dox; experiment: as above; details: Homo sapiens, 48 h; for GI50: read-out: LOVO-DOX GI50; for CC50: read-out: LOVO-DOX LC50; for IC (TGI): read-out: LOVO-DOX TGI
How it was run: as §1

[12] = system: PANC-1; experiment: as above; details: Homo sapiens, PANC-1, 48 h; for GI50: read-out: PANC-1 GI50; for CC50: read-out: PANC-1 LC50; for IC (TGI): read-out: PANC-1 TGI
How it was run: as §1

[13] = system: SK-BR-3; experiment: as above; details: Homo sapiens, SK-BR-3, 48 h; for GI50: read-out: SK-BR3 GI50; for CC50: read-out: SK-BR3 LC50; for IC (TGI): read-out: SK-BR3 TGI
How it was run: as §1

[14] = system: SK-MEL-28; experiment: as above; details: Homo sapiens, SK-MEL-28, 48 h; for GI50: read-out: MEL-28 GI50; for CC50: read-out: MEL-28 LC50; for IC (TGI): read-out: MEL-28 TGI
How it was run: as §1

## C=CCN1[C@@H]2c3c(cc(C)c(OC)c3O)C[C@H]1[C@H](C#N)N1C2[C@@H]2SC[C@]3(NCCc4c3[nH]c3ccc(O)cc43)C(=O)OC[C@H]1c1c3c(c(C)c(OC(C)=O)c12)OCO3 (stereo partly drawn) [compound 57]
[1]
  GI50: 37.4 nM
  CC50: 1500 nM
  IC (TGI): 101 nM
[2]
  GI50: 44.6 nM
  CC50: 12200 nM
  IC (TGI): 4380 nM
[3]
  GI50: 85.9 nM
  CC50: 877 nM
  IC (TGI): 274 nM
[4]
  GI50: 52.1 nM
  CC50: 12200 nM
  IC (TGI): 12200 nM
[5]
  GI50: 22.3 nM
  CC50: 115 nM
  IC (TGI): 50.5 nM
[6]
  GI50: 26.8 nM
  CC50: 112 nM
  IC (TGI): 56.4 nM
[7]
  GI50: 28.8 nM
  CC50: 6480 nM
  IC (TGI): 66 nM
[8]
  GI50: 252 nM
  CC50: 1170 nM
  IC (TGI): 544 nM
[9]
  GI50: 8.82 nM
  CC50: 12200 nM
  IC (TGI): 88.8 nM
[10]
  GI50: 15.1 nM
  CC50: 69.3 nM
  IC (TGI): 32.3 nM
[11]
  GI50: 774 nM
  CC50: 12200 nM
  IC (TGI): 6220 nM
[12]
  GI50: 52.9 nM
  CC50: 12200 nM
  IC (TGI): 1340 nM
[13]
  GI50: 6.42 nM
  CC50: 382 nM
  IC (TGI): 31.8 nM
[14]
  GI50: 29.3 nM
  CC50: 106 nM
  IC (TGI): 55.6 nM

## C=CCN1[C@@H]2c3c(cc(C)c(OC)c3O)C[C@H]1[C@H](C#N)N1C2[C@@H]2SC[C@]3(NCCc4c3[nH]c3ccc(C)cc43)C(=O)OC[C@H]1c1c3c(c(C)c(OC(C)=O)c12)OCO3 (stereo partly drawn) [compound 58]
[1]
  GI50: 216 nM
  CC50: 1240 nM
  IC (TGI): 517 nM
[2]
  GI50: 297 nM
  CC50: 12400 nM
  IC (TGI): 1540 nM
[3]
  GI50: 139 nM
  CC50: 581 nM
  IC (TGI): 285 nM
[4]
  GI50: 46.8 nM
  CC50: 12400 nM
  IC (TGI): 88.8 nM
[5]
  GI50: 61 nM
  CC50: 1160 nM
  IC (TGI): 190 nM
[6]
  GI50: 39.4 nM
  CC50: 165 nM
  IC (TGI): 70.8 nM
[7]
  GI50: 93.9 nM
  CC50: 1040 nM
  IC (TGI): 305 nM
[8]
  GI50: 188 nM
  CC50: 949 nM
  IC (TGI): 422 nM
[9]
  GI50: 26.4 nM
  CC50: 12400 nM
  IC (TGI): 94.2 nM
[10]
  GI50: 29.9 nM
  CC50: 240 nM
  IC (TGI): 71.6 nM
[11]
  GI50: 483 nM
  CC50: 12400 nM
  IC (TGI): 2260 nM
[12]
  GI50: 379 nM
  CC50: 12400 nM
  IC (TGI): 1270 nM
[13]
  GI50: 20.9 nM
  CC50: 2550 nM
  IC (TGI): 75 nM
[14]
  GI50: 241 nM
  CC50: 969 nM
  IC (TGI): 469 nM

## COc1ccc2[nH]c3c(c2c1)CCN[C@]31CS[C@@H]2c3c(OC(C)=O)c(C)c4c(c3[C@H](COC1=O)N1C2[C@@H]2N[C@@H](Cc3cc(C)c(OC)c(O)c32)[C@@H]1C#N)OCO4 (stereo partly drawn) [compound 60]
[1]
  GI50: 3.6 nM
  CC50: 76 nM
  IC (TGI): 13.1 nM
[2]
  GI50: 2.28 nM
  CC50: 12800 nM
  IC (TGI): 13.1 nM
[3]
  GI50: 3.27 nM
  CC50: 2900 nM
  IC (TGI): 8.23 nM
[4]
  GI50: 1.8 nM
  CC50: 7130 nM
  IC (TGI): 1360 nM
[5]
  GI50: 1.37 nM
  CC50: 9.27 nM
  IC (TGI): 3.58 nM
[6]
  GI50: 1.03 nM
  CC50: 12.8 nM
  IC (TGI): 3.41 nM
[7]
  GI50: 1.38 nM
  CC50: 11.8 nM
  IC (TGI): 4.03 nM
[8]
  GI50: 20.9 nM
  CC50: 2890 nM
  IC (TGI): 53.1 nM
[9]
  GI50: 0.809 nM
  CC50: 8570 nM
  IC (TGI): 13.2 nM
[10]
  GI50: 0.415 nM
  CC50: 5.03 nM
  IC (TGI): 1.42 nM
[11]
  GI50: 163 nM
  CC50: 12800 nM
  IC (TGI): 757 nM
[12]
  GI50: 3.31 nM
  CC50: 12800 nM
  IC (TGI): 11.9 nM
[13]
  GI50: 0.431 nM
  CC50: 42.2 nM
  IC (TGI): 1.22 nM
[14]
  GI50: 1.91 nM
  CC50: 9.55 nM
  IC (TGI): 4.27 nM

## COc1c(C)cc2c(c1O)[C@H]1N[C@@H](C2)[C@H](C#N)N2C1[C@@H]1SC[C@]3(NCCc4c3[nH]c3ccc(O)cc43)C(=O)OC[C@H]2c2c3c(c(C)c(OC(C)=O)c21)OCO3 (stereo partly drawn) [compound 61]
[1]
  GI50: 24.3 nM
  CC50: 104 nM
  IC (TGI): 50.1 nM
[2]
  GI50: 6.58 nM
  CC50: 13100 nM
  IC (TGI): 1400 nM
[3]
  GI50: 17.1 nM
  CC50: 8230 nM
  IC (TGI): 70.9 nM
[4]
  GI50: 5.14 nM
  CC50: 7970 nM
  IC (TGI): 9.34 nM
[5]
  GI50: 2.98 nM
  CC50: 10.5 nM
  IC (TGI): 5.6 nM
[6]
  GI50: 3.56 nM
  CC50: 11.8 nM
  IC (TGI): 6.49 nM
[7]
  GI50: 4.82 nM
  CC50: 525 nM
  IC (TGI): 9.64 nM
[8]
  GI50: 225 nM
  CC50: 4770 nM
  IC (TGI): 712 nM
[9]
  GI50: 2.56 nM
  CC50: 642 nM
  IC (TGI): 8.62 nM
[10]
  GI50: 1.17 nM
  CC50: 6.92 nM
  IC (TGI): 2.94 nM
[11]
  GI50: 495 nM
  CC50: 13100 nM
  IC (TGI): 1760 nM
[12]
  GI50: 4.69 nM
  CC50: 13100 nM
  IC (TGI): 15.4 nM
[13]
  GI50: 4.28 nM
  CC50: 245 nM
  IC (TGI): 9 nM
[14]
  GI50: 6.19 nM
  CC50: 60.7 nM
  IC (TGI): 18.8 nM

## COc1c(C)cc2c(c1O)[C@H]1N[C@@H](C2)[C@H](C#N)N2C1[C@@H]1SC[C@]3(NCCc4c3[nH]c3ccc(C)cc43)C(=O)OC[C@H]2c2c3c(c(C)c(OC(C)=O)c21)OCO3 (stereo partly drawn) [compound 62]
[1]
  GI50: 4.56 nM
  CC50: 334 nM
  IC (TGI): 16.5 nM
[2]
  GI50: 4.03 nM
  CC50: 12500 nM
  IC (TGI): 283 nM
[3]
  GI50: 5.03 nM
  CC50: 1540 nM
  IC (TGI): 17.9 nM
[4]
  GI50: 3.3 nM
  CC50: 3590 nM
  IC (TGI): 10.4 nM
[5]
  GI50: 2.3 nM
  CC50: 10.3 nM
  IC (TGI): 4.88 nM
[6]
  GI50: 2.37 nM
  CC50: 11 nM
  IC (TGI): 5.11 nM
[7]
  GI50: 2.59 nM
  CC50: 3900 nM
  IC (TGI): 6.55 nM
[8]
  GI50: 26.6 nM
  CC50: 2920 nM
  IC (TGI): 69.5 nM
[9]
  GI50: 1.94 nM
  CC50: 6020 nM
  IC (TGI): 11 nM
[10]
  GI50: 3.01 nM
  CC50: 8.4 nM
  IC (TGI): 5.03 nM
[11]
  GI50: 136 nM
  CC50: 13100 nM
  IC (TGI): 558 nM
[12]
  GI50: 3.86 nM
  CC50: 4750 nM
  IC (TGI): 13.5 nM
[13]
  GI50: 1.01 nM
  CC50: 103 nM
  IC (TGI): 4.74 nM
[14]
  GI50: 2.46 nM
  CC50: 9.78 nM
  IC (TGI): 4.92 nM
